Laboratory results: patent US10723730B2, “Solid forms of a selective CDK4/6 inhibitor” (PFIZER INC., priority 2013, dated 2020)

Columns and labels:
[1] = physical properties of free base isolated from standard salt break process; assay type: physicochemical; conditions: free base isolated directly from a standard salt break process
Excerpt: As punch sticking is related to API surface area, API particle size control is critical for minimizing sticking during drug product manufacturing. […] Free base API with similarly poor physical properties was produced by free basing of the existing isethionate salt API or by neutralization of the in situ salt formed in the final step of the API synthesis. In either process, small API primary particles were produced due to the rapid crystallization caused by the dramatic change in solubility with adjustment of the pH.

[2] = free base prepared by traditional salt break procedure; cited from earlier work
[3] = particle size analysis by laser diffraction; assay type: physicochemical
Experimental: Particle sizes for the recrystallized materials were assessed using laser diffraction methods. Laser diffraction is recognized by standards and guidance agencies including ISO and ASTM and is widely used to determine particle size distributions. In conducting the assessment, the sample is passed through a laser beam which results in laser light scattered at a range of angles. Detectors placed at fixed angles measure the intensity of light scattered at that position. A mathematical model (Mie or Fraunhoffer Theory) is then applied to generate a particle size distribution.
The particle size was analyzed using the laser diffraction (or small angle light scattering) technique by dispersing the dry sample powder with compressed air. Specifically, the particle size distribution was analyzed using the Sympatec HELOS RODOS system equipped with a Vibri dry powder feeder. The powder sample was dispersed with a dispersion pressure of 0.5 bar. In some instances, an Aspiros micro-dosing device was used, and the powder sample was dispersed with a dispersion pressure of 0.2 bar. A suitable lens was selected to cover the particle size range of each sample.

[4] = MASS (Material Adhesion Screen for Sticking) Punch; assay type: physicochemical; conditions: 10% API in standard blend (89.75% Avicel PH102, 0.25% magnesium stearate); up to 100 compressions
Excerpt: The MASS (Material Adhesion Screen for Sticking) Punch was developed in-house to quantitatively assess the sticking propensity of tablet formulations by weighing the amount of adhered powder on removable punch tip after a series of compressions. This test enables formulators to objectively and quickly evaluate the risk of punch sticking during drug product development and troubleshoot sticking observed during clinical tablet manufacturing. To prepare the sample for MASS Punch testing, 10 g of API was diluted in a lightly lubricated standard blend (10% API, 89.75% Avicel PH102 and 0.25% magnesium stearate) and bottle blended (500 mL amber glass bottle) for 500 rotations. The weight of powder adhered to the removable punch tip (½″ round flat faced) was assessed using a microbalance periodically up to 100 compressions of ˜250 mgW tablets at a target solid fraction of 0.85.

[5] = small-scale crystallization studies; assay type: physicochemical; conditions: 50 mg/mL, 10 mg scale, warmed to reflux
Experimental: A series of small-scale crystallization experiments was run to identify a potential recrystallization solvent system as well as to assess the impact of solvent on the shape of the free base primary particles isolated. An initial set of 14 screening studies were run on a 10 mg scale using sealed vials and an external heat source to warm the 50 mg/mL samples up to reflux temperature. Visual observation identified the samples that went into solution, and photomicroscopy was used to characterize the particles produced.

[6] = kinetic solubility measurements (dissolution temperature); assay type: physicochemical; conditions: 25 mg/mL, max 110° C.
Experimental: In an initial room temperature solubility screening study, a total of 23 solvents were screened. […] Subsequent targeted higher temperature solubility studies were conducted.

[7] = UPLC/MS testing of the saturated solution; assay type: physicochemical; conditions: saturated solution from experiments #3 (NMP) and #11 (10% n-BuOH/NMP) of Table 6

size of hard agglomerates [1]: approximately 500 microns
Particle size D [4, 3] ([3]; 0.2 Bar ASPIROS dispersion): 21.33 μm
Particle size D [v, 0.1] ([3]; 0.2 Bar ASPIROS dispersion): 5.21 μm
Particle size D [v, 0.5] ([3]; 0.2 Bar ASPIROS dispersion): 17.00 μm
Particle size D [v, 0.9] ([3]; 0.2 Bar ASPIROS dispersion): 43.59 μm
D90 ([3]; Table 11): approximately 45 μm
MASS Punch profile (sticking propensity) [4]: positive response
Results of recrystallization ([5]; Chlorobenzene): small irregular shaped particles
Results of recrystallization ([5]; Cyclopentylmethyl ether): did not dissolve
Results of recrystallization ([5]; DMF): small needle shaped particles
Results of recrystallization ([5]; Mesitylene): small needle shaped particles
Results of recrystallization ([5]; NMP): small irregular shaped particles
Results of recrystallization ([5]; Propylene glycol): small irregular shaped particles
Results of recrystallization ([5]; Pyridine): small lathe shaped particles
Results of recrystallization ([5]; Sulfolane): small irregular shaped particles
Results of recrystallization ([5]; Toluene): did not dissolve
Results of recrystallization ([5]; Trifluorotoluene): did not dissolve
Results of recrystallization ([5]; m-Xylene): small/medium tomahawk shaped particles
Results of recrystallization ([5]; n-Butanol): did not dissolve
Results of recrystallization ([5]; n-Butyl Acetate): did not dissolve
Dissolution Temp. ([6]; 1:1:8 propylene glycol/n-BuOH/anisole (v/v)): 91.2 °C
Dissolution Temp. ([6]; 2:1:7 propylene glycol/n-BuOH/anisole (v/v)): 84.1 °C
Dissolution Temp. ([6]; 10% 1,4-butanediol/anisole (v/v)): 109.8 °C
Dissolution Temp. ([6]; 10% n-BuOH/Anisole (v/v)): >110° ° C.
Dissolution Temp. ([6]; 10% n-BuOH/NMP (v/v)): 103.7 °C
Dissolution Temp. ([6]; 20% n-BuOH/Anisole (v/v)): 109.7 °C
Dissolution Temp. ([6]; 25% 1,4-butanediol/anisole (v/v)): 104.8 °C
Dissolution Temp. ([6]; 25% n-BuOH/NMP (v/v)): >110° ° C.
Dissolution Temp. ([6]; 40% n-BuOH/Anisole (v/v)): 101.4 °C
Dissolution Temp. ([6]; Anisole): >110° ° C.
Dissolution Temp. ([6]; DMAc): >110° ° C.
Dissolution Temp. ([6]; DMF): >110° ° C.
Dissolution Temp. ([6]; DMSO): >110° ° C.
Dissolution Temp. ([6]; NMP): 97.9 °C
Dissolution Temp. ([6]; n-BuOH): >110° ° C.
Dissolution Temp. ([6]; n-Butyl acetate): >110° ° C.
chemical stability in solution (impurity peak by UPLC/MS) [7]: degradation occurred
SMILES: CC(=O)c1c(C)c2cnc(Nc3ccc(N4CCNCC4)cn3)nc2n(C2CCCC2)c1=O [compound 1, 6-acetyl-8-cyclopentyl-5-methyl-2-(5-piperazin-1-yl-pyridin-2-ylamino)-8H-pyrido[2,3-d]pyrimidin-7-one]
bioavailability in animal studies [2]: low
Results of recrystallization ([5]; Anisole): large particles (lathes or tomahawk shape)
